Read-outs that look alike come from different tables or passages of the source.
Experiments:
[1] = system: advanced solid malignancies carrying an alteration in the PIK3CA gene; details: cited from earlier work
[2] = Continuous blood glucose measurement via radio-telemetry in conscious freely moving rats; assay type: in vivo, Brown Norway rats; details: for normalization of blood glucose in between 2 doses: steady state
Protocol: Animals and maintenance conditions: Experiments were performed in female nude Rowett rats Hsd: RH-Fox1rnu or female Brown-Norway (BN) rats (Harlan (The Netherlands). Animals were 6-9 weeks of age at time of application of the compound. Animals were housed under Optimized Hygienic Conditions in Makrolon type III cages (max. 2 animals per cage) with free access to food and water. They were allowed to adapt for at least 6 days before the experiment was started.
Compound A was prepared for dosing as homogenous suspensions in 1% carboxymethyl cellulose: 0.5% Tween® 80: 98.5% deionized water. Fresh suspensions were prepared once every 7 days and stored at 4° C. Compound A or vehicle was administered orally at a volume of 10 mL/kg.
Blood Glucose Measurements Via Radio-Telemetry Technology (HD-XG Radio Telemetry Transmitter; Data Sciences International):
Blood glucose levels were measured continuously in conscious non-restrained freely moving rats by the method described in Brockway et al., Journal of Diabetes Science and Technology., 9(4):771-81 (2015), which is incorporated herein by reference in its entirety. Briefly, the 1.4 cc telemetry device provides direct continuous blood glucose readings along with temperature and activity for 4 weeks or longer. The device was used in non-tumor bearing Brown Norway (BN) rats. Each animal was surgically instrumented with glucose sensors in the abdominal aorta and the device placed in the intraperitoneal cavity. Continuous glucose readings were recorded with the Dataquest A.R.T. data acquisition system. Reference glucose values were measured from tail vein blood samples using the Nova StatStrip glucometer twice per week. Each animal was measured in cyclic runs of 1 minute for 10 seconds with a sampling rate of 1 Hz. Mean values for blood glucose levels, body temperature and motor activity were then computed and stored. Fifteen minutes or hourly averages were determined using the interval averaging routine on the Dataquest Analysis Software (Dataquest A.R.T, version 4.36; Data Sciences). Blood glucose values are expressed in mmol/L, body temperature in degree Celsius (° C.) and motor activity in number of movements (units) per minute.
(§1) Absolute values for primary tumor growth and body weight were used to make the statistical comparisons between groups (one way ANOVA followed by Dunnett's test for normally distributed data; ANOVA on Ranks for not normally distributed data followed by Dunnett's test for equal group size or Dunn's for unequal group size). Absolute values for blood glucose (calculated mean over 6 hours' time periods) and PK data were used to make the statistical comparisons between groups (two-tailed Student's t-tests). The significant level was set at p<0.05. All statistical calculations were carried out using SigmaStat.

[3] = system: Rat1-myr-p110α subcutaneous xenografts; assay: Antitumor efficacy in Rat1-myr-p110α tumor bearing nude rats; assay type: in vivo; details: for body weight changes, 10 A.M. vs 5 p.m. dosing / tumor volume inhibition, 10 A.M. (ALTERNATIVE SCHEDULE 1) vs 5 p.m. dosing: 14 consecutive days
Protocol: Animals and maintenance conditions: Experiments were performed in female nude Rowett rats Hsd: RH-Fox1rnu or female Brown-Norway (BN) rats (Harlan (The Netherlands). Animals were 6-9 weeks of age at time of application of the compound. Animals were housed under Optimized Hygienic Conditions in Makrolon type III cages (max. 2 animals per cage) with free access to food and water. They were allowed to adapt for at least 6 days before the experiment was started. Cell line and cell culture: Rat1-Myr-p110α cells were grown in Dulbecco's Modified Eagle Medium (DMEM) culture medium containing 4.5 g/l glucose supplemented with 10% heat-inactivated fetal calf serum (FCS), 2 mM L-glutamine, 1 mM sodium pyruvate and incubated at 37° C. in a 5% CO2 humidified atmosphere. Cells were harvested with trypsin-EDTA, re-suspended in culture medium (with additives) and counted with a Casy® system. Finally, cells were centrifuged, suspended in ice-cold Hanks' balanced salt solution (HBSS) at a concentration of 3×10^7 cells/ml. Cell culture reagents were purchased from BioConcept (Allschwil, Switzerland). Rat1-myr-p110α cells were generated by the method described in Maira et al., Molecular Cancer Therapeutics, 11:317-328 (2012), which is incorporated herein by reference in its entirety. Briefly, Rat1 cells were transfected to stably express the constitutively active form of the catalytic PI3K class I p110 isoforms a by addition of a myristylation signal to the N-terminus. Rat1-Myr-p110α tumors were established by subcutaneous injection of […] in 100 μL HBSS (Sigma #H8264) into the right flank of nude rats. For the efficacy experiments, treatments were initiated when the mean tumor volumes were approx. 900-1200 mm^3 (21 to 23 days post tumor cells injection). Compound A was prepared for dosing as homogenous suspensions in 1% carboxymethyl cellulose: 0.5% Tween® 80: 98.5% deionized water. Fresh suspensions were prepared once every 7 days and stored at 4° C. Compound A or vehicle was administered orally at a volume of 10 mL/kg. Tumor volumes were measured with calipers and determined according to the formula: length×diameter^2×π/6. In addition to presenting changes of tumor volumes over the course of treatments, antitumor activity is expressed as T/C % (mean change of tumor volume of treated animals/mean change of tumor volume of control animals)×100. Regressions (%) were calculated according to the formula ((mean tumor volume at end of treatment−mean tumor volume at start of treatment)/mean tumor volume at start of treatment)×100. Body weights and tumor volumes were recorded two to three times a week. Absolute values for primary tumor growth and body weight were used to make the statistical comparisons between groups (one way ANOVA followed by Dunnett's test for normally distributed data; ANOVA on Ranks for not normally distributed data followed by Dunnett's test for equal group size or Dunn's for unequal group size). Absolute values for blood glucose (calculated mean over 6 hours' time periods) and PK data were used to make the statistical comparisons between groups (two-tailed Student's t-tests). The significant level was set at p<0.05. All statistical calculations were carried out using SigmaStat.

[4] = Plasma PK after oral administration in freely moving catheterized rats with automated blood sampling; assay type: in vivo, Brown Norway rats; details: day 1 or 4 (steady state), 50 mg/kg p.o. qd; 2, 4, 6, 8, 10, 12, 18 and 24h post treatment
Description: Determination of Pharmacokinetic (PK) Parameters after Oral Administration of Compound A in Freely Moving Catheterized Rats Using Automated Blood Sampling (ABS) Technology:
The highly automated ABS system (Instech ABS2™) allows for unattended blood sample collection via an in-dwelling venous catheter placed in the jugular or femoral vein. For all animals, cannulas were filled with 1:1 heparin glycerol solution when not on study. The ABS freely-moving system is a well-recognized method to reduce stress during blood sampling and it only marginally impedes the animal in its freedom to move, drink, eat and sleep. Furthermore, this method allows obtaining pharmacokinetic parameters at night time (active phase of the animal).
as §1

advanced solid tumors = details: cited from earlier work
[5] = daily administration, human patients

SMILES: Cc1nc(NC(=O)N2CCC[C@H]2C(N)=O)sc1-c1ccnc(C(C)(C)C(F)(F)F)c1 [Compound A, (S)-Pyrrolidine-1,2-dicarboxylic acid 2-amide 1-({4-methyl-5-[2-(2,2,2-trifluoro-1,1-dimethyl-ethyl)-pyridin-4-yl]-thiazol-2-yl}-amide)]
- Disease control rate (complete response, partial response or stable disease) ([1]; 150 mg/BID, 95% CI: 38.4-88.2): 66.7%
- confirmed partial responses ([1]; 150 mg/BID): 2 patients
- confirmed partial responses ([1]; 270 mg/QD): 2 patients
- confirmed partial responses ([1]; 350 mg/QD): 1 patients
- Disease control rate (complete response, partial response or stable disease) ([1]; 400 mg/QD, 95% CI: 40.1-66.0): 53.2%
- confirmed partial responses ([1]; 400 mg/QD): 2 patients
- MTD ([1]; QD, in patients): 400 mg
- confirmed partial responses ([1]; all doses, of 132 evaluable patients): 7 patients
- patients with induced hyperglycemia [1, 5]: 49%
- partial responses to treatment ([1]; of 132 evaluable patients, as of Mar. 10, 2014, oral 30-450 mg q.d. or 120-200 mg b.i.d.): 15 patients
- normalization of blood glucose in between 2 doses ([2]; 50 mg/kg p.o. qd, dosing before the active phase (5 p.m.)): could not be achieved
- normalization of blood glucose in between 2 doses ([2]; 50 mg/kg p.o. qd, dosing before the inactive phase (10 a.m.)): allowed blood glucose to normalize in between 2 doses
- change in glucose level ([2]; 50 mg/kg p.o. qd, steady state (Day 4), n=6): transient glucose level increase
- effect on blood glucose levels ([2]; day 1 of treatment, 50 mg/kg p.o. qd dosed at 5 PM (active phase)): slight hyperglycemia
- effect on blood glucose levels ([2]; day 1 of treatment, 50 mg/kg p.o. qd dosed at 10 AM (inactive phase)): slight hyperglycemia
- period of remaining transient hyperglycemia after treatment discontinuation ([2]; recovery day 1, group dosed before the active phase (5 p.m.), 50 mg/kg p.o. qd): up to 12 h
- blood glucose after treatment discontinuation ([2]; start of recovery day 1, group dosed before the inactive phase (10 a.m.), 50 mg/kg p.o. qd): already normalized to baseline levels
- effect on blood glucose levels ([2]; steady state (Day 4-5 of daily treatment), 50 mg/kg p.o. qd): transient hyperglycemia profile
- anti-tumor efficacy ([3]; 14 mg/kg p.o. qd, 2 weeks of treatment): stasis
- body weight changes, 10 A.M. vs 5 p.m. dosing ([3]; 14 mg/kg p.o. qd): very similar pattern
- tumor volume inhibition, 10 A.M. (ALTERNATIVE SCHEDULE 1) vs 5 p.m. dosing ([3]; 14 mg/kg p.o. qd): No significant differences
- tumor regression ([3]; 25 mg/kg p.o. qd, 2 weeks of treatment): 50%
- body weight changes, 10 A.M. vs 5 p.m. dosing ([3]; 25 mg/kg p.o. qd): very similar pattern
- tumor volume inhibition, 10 A.M. (ALTERNATIVE SCHEDULE 1) vs 5 p.m. dosing ([3]; 25 mg/kg p.o. qd): No significant differences
- plasma PK profile, 10 AM vs 5 PM dosing [4]: did not revealed any significant differences

SMILES: Nc1cc(C(F)(F)F)c(-c2cc(N3CCOCC3)nc(N3CCOCC3)n2)cn1 [Compound B, 4-(trifluoromethyl)-5-(2,6-dimorpholinopyrimidin-4-yl)pyridin-2-amine]
- patients with induced hyperglycemia (advanced solid tumors; [5]): 31%
- unconfirmed partial responses (advanced solid tumors; parotid gland carcinoma, epithelioid hemangiothelioma, ER+ breast cancer): three
- confirmed partial response (advanced solid tumors; triple-negative breast cancer, 83 patients enrolled): One

— patent US20180280370A1, “DOSAGE REGIMEN FOR A PHOSPHATIDYLINOSITOL 3-KINASE INHIBITOR” (Novartis AG, priority 2015, published 2018)
